# Assay results reported in patent US11008325B2, “Inhibitors of cancer invasion, attachment, and/or metastasis” (VIRGINIA COMMONWEALTH UNIVERSITY, priority 2016, dated 2021).
# Tests used:
# [1] = system: GBM6 cells; assay: orthotopic GBM6 xenograft model; assay type: in vivo, mice
# Experimental: FIGS. 13A-13E. Effect of PDZ1i on survival in an in vivo model of glioma. GBM6 cells were pretreated for 2 hrs prior to intracranial injection with vehicle (DMSO) or PDZ1i and after 7 days, brain tissue was isolated and sectioned at injection site. FIG. 13A, brain tissue at site of injection of DMSO treated cells; FIG. 13B, brain tissue are site of injection of PDZ1i treated cells. 7 days after tumor implantation, mice received either vehicle or PDZ1i (30 mg/kg) three times per week for 3 weeks. Brain tissue was isolated and analyzed via H&E stain, FIG. 13C, brain tissue from mice treated with vehicle; FIG. 13D, brain tissue from mice treated with PDZ1i. FIG. 13E, Kaplan-Myer curves of these groups based on animal survival. **p<0.01.
# PDZ1i is effective in reducing tumor invasion in an animal model of GBM. To test the efficacy of PDZ1i, we used an orthotopic xenograft model with GBM6 cells that were pretreated with either DMSO or PDZ1i and injected intracranially to form tumors. Seven d post injection tumor and brain tissue were isolated for sectioning. […] Separately, untreated cells were injected and tumors established, then mice were treated IP with either DMSO or PDZ1i (30 mg/kg) three times per wk for two wk. […]
# [2] = system: HuVEC cells / chorioallantoic membrane; assay: in vitro tube formation and CAM assays with tumor-derived conditioned media; assay type: cell-based; settings: data not shown
# Experimental: In this study, the potential impact of PDZ1i on tumor-derived angiogenesis in a prostate cancer context was explored. The experimental strategy is outlined in FIG. 18A. […] This observation was also validated in different PC cells by qPCR. Additionally, since VEGF-A is a potent angiogenic factor and a downstream target of STAT3, the expression pattern of VEGF-A at both mRNA and protein levels was also evaluated in different PC cells, including mda-9 stably expressing RWPE-1 cells (FIG. 18C).
# Tube formation and CAM assays were performed as described previously^27. Briefly, tumor-derived conditioned media were collected after 24 h of treatment (either DMSO or PDZ1i) and concentrated. Equal amounts of protein (50 μg) containing conditioned media were mixed with basal media and incubated with HuVEC cells on Matrigel layers. Photographs were taken after 6 h. In CAM assays, DMSO- or PDZ1 i-treated tumor cell-derived conditioned media were implanted on the CAM of 8 day-old fertilized eggs. Photographs were taken on day 12, 4 days after applying conditioned media.
# [3] = system: U87-EGFRvIII cells; assay: immunoblot of EGFRvIII/FAK/NF-kB signaling with radiation; assay type: cell-based, human
# Experimental: FIGS. 9A-9C. PDZ1i treatment impairs EGFRvIII and FAK signaling, as well as EGFRvIII-MDA-9 interaction. FIG. 9A. Immunoblot analysis showing expression of mutated EGFR in U87 or U87EGFRvIII cells. FIG. 9B. Cells were treated with either DMSO or PDZ1i 2 hrs prior to radiation. These cells were subsequently seeded on fibronectin-coated plates and cell lysates were collected after 1 hr and analyzed for protein expression. FIG. 9C. Lysates from cells treated with and without radiation or PDZ1i as indicated were analyzed via immunoprecipitation. Anti-MDA-9, top, and anti-EGFR, bottom, were used to pull down associated complexes, and western blotting was performed with the indicated antibodies. Left lanes include IgG and control input samples.
# PDZ1i inhibits EGFRvIII-driven signaling in GBM and reduces MMP secretion. EGFR amplification and mutation is both a common and important alteration in GBM. A particular mutation of this receptor, EGFRvIII, is often co-expressed along with EGFR amplification in GBM. […] U87 cells stably expressing EGFRvIII, U87-EGFRvIII (FIG. 9), were treated with PDZ1i prior to radiation. […]
# Preparation of whole-cell lysates and Western blotting analysis was performed as described (5). For densitometry evaluation, X-ray films were scanned and analyzed with ImageJ software (NIH).
smiles,measurement,setting,value
"Cc1cc(NC(=O)c2nc3[nH]c4c(c(=O)n3n2)CCC4)c(C)cc1NC(=O)CCc1nnc(-c2ccccc2)o1 [113B7, N-(2,5-dimethyl-4-(3-(5-phenyl-1,3,4-oxadiazol-2-yl)propanamido)phenyl)-8-oxo-5,6,7,8-tetrahydro-4H-cyclopenta[d][1,2,4]triazolo[1,5-a]pyrimidine-2-carboxamide]",survival,[1]; PDZ1i 30 mg/kg IP three times per wk,significantly increased
same,tumor size and demarcation,"[1]; cells pretreated with PDZ1i, 7 d post intracranial injection",noticeably smaller and more demarcated neoplasms
same,angiogenic activity of treated tumor cell-derived conditioned media,[2],anti-angiogenic properties
same,FAK activation after radiation,[3]; PDZ1i prior to radiation,nullified
same,phospho-EGFR,[3]; radiated and non-radiated cells,significantly reduced
